Like-named read-outs stand apart in the source and are kept apart here.

The values below come from paper PMC12889028, “Discovery and biological evaluation of novel N-aryl-N′-methylbenzodrazides against Schistosoma japonicum in vitro and in vivo” (Microbiology Spectrum, 2025).

The test system of this data set is adult worms of S. japonicum (Chinese strain). Description: microbe, parasite or virus in culture. To be noted: for Mortality (%) 72 h: 100 μM, adult worms in vitro; for mortality at 100 µM: Schistosoma japonicum. The method, then:
S. japonicum cercariae (Chinese strain) were acquired from infected Oncomelania hupensis snails (Wuxi Insect Vector Biology Co., Ltd., China) ([28]). ICR mice (6–8 weeks, 22–25 g; Hunan SJA Laboratory Animal Co., Ltd., China) were percutaneously infected via abdominal exposure to 60 ± 5 cercariae. Adult schistosomes were perfused from the hepatic portal system at 35 dpi using a modified Duvall and DeWitt method ([29]). Animals were housed under controlled conditions (22°C ± 1°C, 12 h light/dark cycle) with ad libitum access to feed and water.
Adult S. japonicum worms isolated from ICR mice were maintained in sterile culture medium (2.0 mL) comprising 77% RPMI 1640 (Lanzhou Bailing Biotech Co., Ltd.; pH 7.5, HEPES-buffered), 20% heat-inactivated fetal bovine serum (Lanzhou Minhai Bio-Engineering Co., Ltd.), and 3% penicillin-streptomycin (100×; 10,000 U/mL penicillin, 10,000 μg/mL streptomycin; New Cell & Molecular Biotech Co., Ltd., China). Incubation was performed at 37°C under 5% CO2. Test compounds were dissolved in DMSO as 0.1 M stock solutions; 2.0 μL aliquots were added to worm-containing media (final concentration: 100 μM in 0.1% DMSO). Negative controls received equivalent volumes of vehicle (0.1% DMSO in RPMI 1640). Parasite viability (motor activity, tegumental integrity, survival) was assessed every 12 h for 72 h using an Olympus CKX53 inverted microscope (n ≥ 3 independent replicates).

Where [1] appears, read: 24 h, read-out: Mortality (%) 24 h, 100 μM, 24 h, adult worms in vitro.
Where [2] appears, read: 36 h, read-out: Mortality (%) 36 h, 100 μM, 36 h, adult worms in vitro.
[3] abbreviates: 48 h, read-out: Mortality (%) 48 h, 100 μM, 48 h, adult worms in vitro.
[4] abbreviates: 72 h, read-out: Mortality (%) 72 h, 100 μM, 72 h, adult worms in vitro.

One may read the mortality as the share of the test organisms that died. Take `Cc1ccc(N(C)NC(=O)c2ccc(Cl)c(Cl)c2)cc1` [Compound 1]: the “Mortality (%) 72 h” value (72 h) was found to be 100%. Moreover, the mortality at 100 µM was 0% under setting [1], 5% under setting [2], 60% under setting [3] and over 80% under setting [4].
For `COc1ccc(N(C)NC(=O)c2ccc(Cl)c(Cl)c2)cc1` [Compound 2], the mortality at 100 µM was determined as 0% under setting [1], 0% under setting [2], 0% under setting [3] and 0% under setting [4].
Consider `CN(NC(=O)c1ccc(Cl)c(Cl)c1)c1ccc(F)cc1` [Compound 3], for which, where the note is “72 h”, the “Mortality (%) 72 h” value was found to be 85%. In addition, the mortality at 100 µM was 0% under setting [1], 0% under setting [2], 45% under setting [3] and over 80% under setting [4].
`CN(NC(=O)c1ccc(Cl)c(Cl)c1)c1ccc(Cl)cc1` [Compound 4]: the mortality at 100 µM was 0% under setting [1], 0% under setting [2], 0% under setting [3] and 10% under setting [4].
Consider `CN(NC(=O)c1ccc(Cl)c(Cl)c1)c1ccc(C#N)cc1` [Compound 6], for which the mortality at 100 µM runs as follows: under setting [1], 0%; under setting [2], 0%; under setting [3], 0%; under setting [4], 20%.
On to `Cc1cccc(N(C)NC(=O)c2ccc(Cl)c(Cl)c2)c1` [Compound 7], for which the mortality at 100 µM runs as follows: under setting [1], 0%; under setting [2], 0%; under setting [3], 0%; under setting [4], 0%.
`CN(NC(=O)c1ccc(Cl)c(Cl)c1)c1cccc(Cl)c1` [Compound 8]: the “Mortality (%) 72 h” value (72 h) is 100%. Also, the mortality at 100 µM under setting [1] is 0%, the mortality at 100 µM under setting [2] turned out to be 0%, the mortality at 100 µM under setting [3] amounted to 40% and the mortality at 100 µM under setting [4] is over 80%.
As to `CN(NC(=O)c1ccc(Cl)c(Cl)c1)c1cccc(Br)c1` [Compound 9], under “72 h”, the “Mortality (%) 72 h” value is on record as 85%. The mortality at 100 µM is, setting by setting: under setting [1], 0%; under setting [2], 0%; under setting [3], 15%; under setting [4], over 80%.
Take `CN(NC(=O)c1ccc(Cl)c(Cl)c1)c1ccccc1F` [Compound 11]: the mortality at 100 µM stood at 0% under setting [1], 0% under setting [2], 0% under setting [3] and 0% under setting [4].
In the case of `CN(NC(=O)c1ccc(Cl)c(Cl)c1)c1ccccc1Cl` [Compound 12], the mortality at 100 µM is 0% under setting [1], 0% under setting [2], 0% under setting [3] and 0% under setting [4].
As to `CN(NC(=O)c1ccc(Cl)c(Cl)c1)c1ccc(Cl)c(Cl)c1` [Compound 13], where the note is “72 h”, the “Mortality (%) 72 h” value is reported as 100%. Further, the mortality at 100 µM is 0% under setting [1], 15% under setting [2], 50% under setting [3] and over 80% under setting [4].
Regarding `CN(NC(=O)c1ccc(Cl)c(Cl)c1)c1ccc(Cl)c(C(F)(F)F)c1` [Compound 14], the “Mortality (%) 72 h” value (72 h) turned out to be 95%. Further, the mortality at 100 µM is 15% under setting [1], 25% under setting [2], 55% under setting [3] and over 80% under setting [4].
`Cc1ccc(C(=O)NN(C)c2ccc(Cl)c(Cl)c2)cc1` [Compound 15]: the mortality at 100 µM is, setting by setting: under setting [1], 0%; under setting [2], 20%; under setting [3], 35%; under setting [4], 65%.
`COc1ccc(C(=O)NN(C)c2ccc(Cl)c(Cl)c2)cc1` [Compound 16]: for the setting “72 h”, the “Mortality (%) 72 h” value turned out to be 100%. In addition, the mortality at 100 µM runs as follows: under setting [1], 0%; under setting [2], 0%; under setting [3], 65%; under setting [4], over 90%.
As to `CN(NC(=O)c1ccc(Cl)cc1)c1ccc(Cl)c(Cl)c1` [Compound 17], the mortality at 100 µM reads like this: under setting [1], 0%; under setting [2], 5%; under setting [3], 25%; under setting [4], 70%.
Consider `CN(NC(=O)c1ccc(C(F)(F)F)cc1)c1ccc(Cl)c(Cl)c1` [Compound 19], for which the mortality at 100 µM turned out to be 0% under setting [1], 0% under setting [2], 35% under setting [3] and 80% under setting [4].
In the case of `CN(NC(=O)c1ccc(C#N)cc1)c1ccc(Cl)c(Cl)c1` [Compound 20], the “Mortality (%) 72 h” value (72 h) is on record as 100%. For the same compound, the mortality at 100 µM reads like this: under setting [1], 0%; under setting [2], 0%; under setting [3], 60%; under setting [4], over 90%.
Regarding `CN(NC(=O)c1ccc([N+](=O)[O-])cc1)c1ccc(Cl)c(Cl)c1` [Compound 21], the mortality at 100 µM is, setting by setting: under setting [1], 0%; under setting [2], 0%; under setting [3], 30%; under setting [4], 65%.
Consider `Cc1cccc(C(=O)NN(C)c2ccc(Cl)c(Cl)c2)c1` [Compound 22], for which the mortality at 100 µM under setting [1] is 0%, the mortality at 100 µM under setting [2] was 0%, the mortality at 100 µM under setting [3] stood at 0% and the mortality at 100 µM under setting [4] is 70%.
For `CN(NC(=O)c1cccc(Cl)c1)c1ccc(Cl)c(Cl)c1` [Compound 23], the “Mortality (%) 72 h” value (72 h) is reported as 95%. Also, the mortality at 100 µM was 0% under setting [1], 5% under setting [2], 40% under setting [3] and over 90% under setting [4].
With `CN(NC(=O)c1ccc(F)c(F)c1)c1ccc(Cl)c(Cl)c1` [Compound 24], where the note is “72 h”, the “Mortality (%) 72 h” value is given as 90%. The mortality at 100 µM is 0% under setting [1], 5% under setting [2], 45% under setting [3] and over 90% under setting [4].
With `CN(NC(=O)c1ccc(F)c(C(F)(F)F)c1)c1ccc(Cl)c(Cl)c1` [Compound 25], the mortality at 100 µM under setting [1] is 0%, the mortality at 100 µM under setting [2] stood at 0%, the mortality at 100 µM under setting [3] is 30% and the mortality at 100 µM under setting [4] came out at 80%.
Regarding `Cc1ccc(N(C)NC(=O)c2ccc(Br)cc2)cc1` [Compound 26], the mortality at 100 µM was 0% under setting [1], 0% under setting [2], 10% under setting [3] and 10% under setting [4].
Consider `COc1ccc(N(C)NC(=O)c2ccc(Br)cc2)cc1` [Compound 27], for which the mortality at 100 µM runs as follows: under setting [1], 0%; under setting [2], 0%; under setting [3], 0%; under setting [4], 0%.
Consider `CN(NC(=O)c1ccc(Br)cc1)c1ccc(F)cc1` [Compound 28], for which the mortality at 100 µM is, setting by setting: under setting [1], 0%; under setting [2], 0%; under setting [3], 0%; under setting [4], 0%.
On to `CN(NC(=O)c1ccc(Br)cc1)c1ccc(Cl)cc1` [Compound 29], for which the mortality at 100 µM under setting [1] amounted to 0%, the mortality at 100 µM under setting [2] is 0%, the mortality at 100 µM under setting [3] was found to be 0% and the mortality at 100 µM under setting [4] turned out to be 35%.
Turning to `CN(NC(=O)c1ccc(Br)cc1)c1ccc(Br)cc1` [Compound 30], the mortality at 100 µM reads like this: under setting [1], 0%; under setting [2], 10%; under setting [3], 65%; under setting [4], 100%.
On to `CN(NC(=O)c1ccc(Br)cc1)c1ccc(C(F)(F)F)cc1` [Compound 31], for which the mortality at 100 µM is, setting by setting: under setting [1], 0%; under setting [2], 10%; under setting [3], 55%; under setting [4], 75%.
On to `CN(NC(=O)c1ccc(Br)cc1)c1ccc(C#N)cc1` [Compound 32], for which the mortality at 100 µM by setting is: under setting [1], 0%; under setting [2], 0%; under setting [3], 0%; under setting [4], 0%.
Consider `Cc1cccc(N(C)NC(=O)c2ccc(Br)cc2)c1` [Compound 33], for which the mortality at 100 µM runs as follows: under setting [1], 0%; under setting [2], 15%; under setting [3], 40%; under setting [4], 70%.
As to `CN(NC(=O)c1ccc(Br)cc1)c1cccc(Cl)c1` [Compound 34], the mortality at 100 µM by setting is: under setting [1], 0%; under setting [2], 0%; under setting [3], 0%; under setting [4], 90%.
As for `CN(NC(=O)c1ccc(Br)cc1)c1cccc(Br)c1` [Compound 35], the mortality at 100 µM was 0% under setting [1], 0% under setting [2], 30% under setting [3] and 60% under setting [4].
In the case of `CN(NC(=O)c1ccc(Br)cc1)c1cccc(C(F)(F)F)c1` [Compound 36], the mortality at 100 µM runs as follows: under setting [1], 0%; under setting [2], 0%; under setting [3], 10%; under setting [4], 80%.
